According to ChEMBL document CHEMBL1144479, “Synthesis and antimicrobial studies on novel chloro-fluorine containing hydroxy pyrazolines” (2007):
In brackets after ≈: the same amount, converted by molar mass.

What was measured:
[1] = test system: Staphylococcus aureus; assay: microbe, parasite or virus in culture; type: functional, ATCC 25923; conditions: for MIC: Staphylococcus aureus, ATCC 25923, 24 h
Description: Antibacterial activity against Staphylococcus aureus ATCC 25923 after 24 hrs by disc diffusion method

[2] = test system: Pseudomonas aeruginosa; assay: microbe, parasite or virus in culture; type: functional, ATCC 27853; conditions: for MIC: Pseudomonas aeruginosa, ATCC 27853, 24 h
Description: Antibacterial activity against Pseudomonas aeruginosa ATCC 27853 after 24 hrs by disc diffusion method

[3] = test system: Talaromyces marneffei; assay: Antifungal activity against Penicillium marneffei after 3 to 4 days by serial plate dilution method; type: functional; conditions: for MIC: Talaromyces marneffei
[4] = test system: Streptococcus pyogenes; assay: Antibacterial activity against Streptococcus pyogenes after 24 hrs by disc diffusion method; type: functional; conditions: for MIC: Streptococcus pyogenes, 24 h
[5] = test system: Klebsiella pneumoniae; assay: Antibacterial activity against Klebsiella pneumoniae after 24 hrs by disc diffusion method; type: functional; conditions: for MIC: Klebsiella pneumoniae, 24 h
[6] = test system: Aspergillus fumigatus; assay: Antifungal activity against Aspergillus fumigatus NCIM no. 902 after 3 to 4 days by serial plate dilution method; type: functional; conditions: for MIC: Aspergillus fumigatus
[7] = test system: Escherichia coli; assay: microbe, parasite or virus in culture; type: functional, ATCC 25922; conditions: for MIC: Escherichia coli, ATCC 25922, 24 h
Description: Antibacterial activity against Escherichia coli ATCC 25922 after 24 hrs by disc diffusion method

[8] = test system: Candida albicans; assay: Antifungal activity against Candida albicans NCIM no. 300 after 3 to 4 days by serial plate dilution method; type: functional; conditions: for MIC: Candida albicans
[9] = test system: Trichophyton benhamiae; assay: Antifungal activity against Trichophyton mentagrophytes after 3 to 4 days by serial plate dilution method; type: functional, Arthroderma benhamiae; conditions: for MIC: Trichophyton benhamiae
[10] = test system: Aspergillus flavus; assay: Antifungal activity against Aspergillus flavus NCIM no. 524 after 3 to 4 days by serial plate dilution method; type: functional; conditions: for MIC: Aspergillus flavus

| Compound | inhibition zone (IZ) [1] [mm] | MIC [1] [µg/mL] | inhibition zone (IZ) [2] [mm] | MIC [2] [µg/mL] | inhibition zone (IZ) [3] [mm] | MIC [3] [µg/mL] | inhibition zone (IZ) [4] [mm] | MIC [4] [µg/mL] | inhibition zone (IZ) [5] [mm] | MIC [5] [µg/mL] | inhibition zone (IZ) [6] [mm] | MIC [6] [µg/mL] | inhibition zone (IZ) [7] [mm] | MIC [7] [µg/mL] | inhibition zone (IZ) [8] [mm] | MIC [8] [µg/mL] | inhibition zone (IZ) [9] [mm] | MIC [9] [µg/mL] | inhibition zone (IZ) [10] [mm] | MIC [10] [µg/mL] |
| --- | --- | --- | --- | --- | --- | --- | --- | --- | --- | --- | --- | --- | --- | --- | --- | --- | --- | --- | --- | --- |
| COc1ccc(C2=NN(C(=O)COc3ccc(Cl)cc3Cl)C(O)(c3cc(F)c(Cl)cc3Cl)C2)cc1 (configuration not stated) | 16 | 6.25 (≈ 11.2 µM) | 21 | 6.25 (≈ 11.2 µM) | 20 | 6.25 (≈ 11.2 µM) | 19 | 12.5 (≈ 22.4 µM) | 16 | 12.5 (≈ 22.4 µM) | 19 | 6.25 (≈ 11.2 µM) | 16 | 12.5 (≈ 22.4 µM) | 12.5 | 17 (≈ 30.5 µM) | 18 | 6.25 (≈ 11.2 µM) | 16 | 12.5 (≈ 22.4 µM) |
| COc1ccc(C2=NN(C(=O)COc3ccc(C)cc3)C(O)(c3cc(F)c(Cl)cc3Cl)C2)cc1OC (configuration not stated) | – | > 100 | 23 | 6.25 (≈ 11.7 µM) | – | > 100 | – | > 100 | – | > 100 | – | > 100 | 16 | 12.5 (≈ 23.4 µM) | – | > 100 | 23 | 6.25 (≈ 11.7 µM) | 10 | 25 (≈ 46.9 µM) |
| COc1ccc(C2=NN(C(=O)COc3ccc(Cl)cc3Cl)C(O)(c3cc(F)c(Cl)cc3Cl)C2)cc1OC (configuration not stated) | – | > 100 | – | > 100 | 12 | 25 (≈ 42.5 µM) | – | > 100 | – | > 100 | 14 | 12.5 (≈ 21.2 µM) | 9 | 25 (≈ 42.5 µM) | – | > 100 | – | > 100 | – | > 100 |
| Cc1ccc(OCC(=O)N2N=C(c3ccc(Cl)cc3)CC2(O)c2cc(F)c(Cl)cc2Cl)cc1 (configuration not stated) | 19 | 6.25 (≈ 12.3 µM) | 24 | 6.25 (≈ 12.3 µM) | 17 | 6.25 (≈ 12.3 µM) | 18 | 12.5 (≈ 24.6 µM) | 18 | 6.25 (≈ 12.3 µM) | 19 | 6.25 (≈ 12.3 µM) | 17 | 12.5 (≈ 24.6 µM) | 19 | 12.5 (≈ 24.6 µM) | 20 | 6.25 (≈ 12.3 µM) | 15 | 12.5 (≈ 24.6 µM) |
| COc1ccc(C2=NN(C(=O)COc3ccc(Cl)cc3)C(O)(c3cc(F)c(Cl)cc3Cl)C2)cc1 (configuration not stated) | 19 | 6.25 (≈ 11.9 µM) | 22 | 6.25 (≈ 11.9 µM) | 20 | 6.25 (≈ 11.9 µM) | 18 | 12.5 (≈ 23.9 µM) | 19 | 6.25 (≈ 11.9 µM) | 21 | 6.25 (≈ 11.9 µM) | 18 | 12.5 (≈ 23.9 µM) | 19 | 6.25 (≈ 11.9 µM) | 19 | 6.25 (≈ 11.9 µM) | 18 | 12.5 (≈ 23.9 µM) |
| Cc1ccc(OCC(=O)N2N=C(c3ccc(Cl)cc3Cl)CC2(O)c2cc(F)c(Cl)cc2Cl)cc1 (configuration not stated) | 19 | 6.25 (≈ 11.5 µM) | 24 | 6.25 (≈ 11.5 µM) | 18 | 6.25 (≈ 11.5 µM) | 18 | 12.5 (≈ 23.1 µM) | 18 | 6.25 (≈ 11.5 µM) | 20 | 6.25 (≈ 11.5 µM) | 15 | 12.5 (≈ 23.1 µM) | 19 | 6.25 (≈ 11.5 µM) | 18 | 6.25 (≈ 11.5 µM) | 16 | 12.5 (≈ 23.1 µM) |
| O=C(COc1ccc(Cl)cc1Cl)N1N=C(c2ccc(Cl)cc2Cl)CC1(O)c1cc(F)c(Cl)cc1Cl (configuration not stated) | – | > 100 | 10 | 25 (≈ 41.9 µM) | – | > 100 | – | > 100 | – | > 100 | – | > 100 | 17 | 12.5 (≈ 20.9 µM) | – | > 100 | 10 | 25 (≈ 41.9 µM) | 12 | 25 (≈ 41.9 µM) |
| O=C(COc1ccc(Cl)cc1)N1N=C(c2ccccc2)CC1(O)c1cc(F)c(Cl)cc1Cl (configuration not stated) | 14 | 12.5 (≈ 25.3 µM) | – | > 100 | 10 | 25 (≈ 50.6 µM) | – | > 100 | 10 | 25 (≈ 50.6 µM) | 14 | 12.5 (≈ 25.3 µM) | – | > 100 | – | > 100 | 7 | 25 (≈ 50.6 µM) | 9 | 25 (≈ 50.6 µM) |
| O=C(COc1ccc(Cl)cc1)N1N=C(c2ccc(Cl)cc2Cl)CC1(O)c1cc(F)c(Cl)cc1Cl (configuration not stated) | – | > 100 | – | > 100 | 10 | 25 (≈ 44.4 µM) | – | > 100 | – | > 100 | – | > 100 | – | > 100 | – | > 100 | – | – | – | > 100 |
| Cc1ccc(OCC(=O)N2N=C(c3ccccc3)CC2(O)c2cc(F)c(Cl)cc2Cl)cc1 (configuration not stated) | 17 | 6.25 (≈ 13.2 µM) | 18 | 6.25 (≈ 13.2 µM) | 12 | 12.5 (≈ 26.4 µM) | 17 | 12.5 (≈ 26.4 µM) | 18 | 6.25 (≈ 13.2 µM) | 11 | 12.5 (≈ 26.4 µM) | 15 | 12.5 (≈ 26.4 µM) | 15 | 12.5 (≈ 26.4 µM) | 10 | 25 (≈ 52.8 µM) | 11 | 25 (≈ 52.8 µM) |
| COc1ccc(C2=NN(C(=O)COc3ccc(Cl)cc3)C(O)(c3cc(F)c(Cl)cc3Cl)C2)cc1OC (configuration not stated) | – | > 100 | – | > 100 | – | > 100 | 10 | 25 (≈ 45.1 µM) | – | > 100 | – | > 100 | 8 | 25 (≈ 45.1 µM) | 10 | 25 (≈ 45.1 µM) | – | > 100 | 9 | 25 (≈ 45.1 µM) |
| O=C(COc1ccc(Cl)cc1)N1N=C(c2ccc(Cl)cc2)CC1(O)c1cc(F)c(Cl)cc1Cl (configuration not stated) | 18 | 6.25 (≈ 11.8 µM) | 21 | 6.25 (≈ 11.8 µM) | 18 | 6.25 (≈ 11.8 µM) | 20 | 12.5 (≈ 23.7 µM) | 19 | 6.25 (≈ 11.8 µM) | 18 | 6.25 (≈ 11.8 µM) | 18 | 12.5 (≈ 23.7 µM) | 20 | 12.5 (≈ 23.7 µM) | 19 | 6.25 (≈ 11.8 µM) | 16 | 12.5 (≈ 23.7 µM) |
| COc1ccc(C2=NN(C(=O)COc3ccc(C)cc3)C(O)(c3cc(F)c(Cl)cc3Cl)C2)cc1 (configuration not stated) | – | > 100 | 10 | 25 (≈ 49.7 µM) | 12 | 12.5 (≈ 24.8 µM) | – | > 100 | – | > 100 | 12 | 12.5 (≈ 24.8 µM) | – | > 100 | – | > 100 | 10 | 25 (≈ 49.7 µM) | – | > 100 |
| O=C(COc1ccc(Cl)cc1Cl)N1N=C(c2ccc(Cl)cc2)CC1(O)c1cc(F)c(Cl)cc1Cl (configuration not stated) | – | > 100 | 23 | 6.25 (≈ 11.1 µM) | – | > 100 | – | > 100 | – | 6.25 (≈ 11.1 µM) | – | > 100 | 10 | 25 (≈ 44.4 µM) | – | > 100 | 12 | 12.5 (≈ 22.2 µM) | 10 | 25 (≈ 44.4 µM) |
| O=C(COc1ccc(Cl)cc1Cl)N1N=C(c2ccccc2)CC1(O)c1cc(F)c(Cl)cc1Cl (configuration not stated) | 15 | 6.25 (≈ 11.8 µM) | 19 | 6.25 (≈ 11.8 µM) | 15 | 6.25 (≈ 11.8 µM) | 15 | 12.5 (≈ 23.7 µM) | 16 | 6.25 (≈ 11.8 µM) | 13 | 12.5 (≈ 23.7 µM) | 17 | 12.5 (≈ 23.7 µM) | 10 | 25 (≈ 47.3 µM) | 11 | 25 (≈ 47.3 µM) | 15 | 12.5 (≈ 23.7 µM) |
| O=C(O)c1cn(C2CC2)c2cc(N3CCNCC3)c(F)cc2c1=O [CIPROFLOXACIN] | 19 | – | 25 | – | – | – | 20 | 12.5 (≈ 37.7 µM) | 20 | 6.25 (≈ 18.9 µM) | – | – | 18 | 12.5 (≈ 37.7 µM) | – | – | – | – | – | – |
| OC(Cn1cncn1)(Cn1cncn1)c1ccc(F)cc1F [FLUCONAZOLE] | – | – | – | – | 21 | 6.25 (≈ 20.4 µM) | – | – | – | – | 22 | 6.25 (≈ 20.4 µM) | – | – | 20 | 6.25 (≈ 20.4 µM) | 20 | 6.25 (≈ 20.4 µM) | 18 | 12.5 (≈ 40.8 µM) |
